Legend:
Assay type in all cases: cell-based, Human
[Na^+]i in U87 cells = Na+ imaging (ANG-2 AM) of U87 cells; settings: bepridil 50 μM, KB‐R7943 50 μM, CB‐DMB 4 μM
Protocol: Cells were cultured in 96‐well plates at 8 × 10^3 per well and loaded with the cell membrane‐permeable Ca^2+ dye Fluo‐4 AM (5 μM) in 100‐μl HEPES‐buffered solution for 50 min. The solution contained (mM): 135 NaCl, 3 KCl, 2 CaCl2, 1 MgCl2, 10 glucose, and 10 HEPES, supplemented with 1% FBS at pH 7.4. To prepare the Ca^2+‐free solution, 2‐mM CaCl2 was replaced with 1‐mM EGTA in the HEPES‐buffered solution. The 96‐well plate containing the Fluo‐4 AM‐loaded cells was mounted in a Leica TCS SP8 confocal system (Leica Microsystems, Wetzlar, Germany). The confocal microscope armed with 488‐nm laser light was employed to excite the dynamic fluorescent signals in time and synchronously, while test regents were added to cells. To do Na^+ imaging, Fluo‐4 AM was replaced with the cell membrane‐permeable Na^+ dye Asante NaTrium Green‐2 AM (ANG‐2 AM) at 5 μM, which was excited by 514‐nm laser light. Visual inspection and fluorescent imaging were carried out at room temperature. The imaging data were analysed with the software https://leica-las-af-lite.software.informer.com/ 2.5 (Leica). The imaging traces shown are representative of at least three separate experiments; 12–18 cells were imaged in each experiment.

U251 cells = test: Cell viability assay (Cell Counting Kit-8), U251; settings: for IC50: 72 hr, CCK-8, mean ± SEM
Protocol: Cell viability was determined by using a Cell Counting Kit‐8 (Dojindo, Japan). Briefly, cells were harvested from flasks and plated in 96‐well cell culture plates at 5 × 10^3 per well and cultured overnight. […] Control cells were treated with cell culture medium and measured at the same time point as treatment groups. CCK‐8 solution (10 μl) was added to each well of the 96‐well plates, and the cultures were incubated for 30 min at 37°C. Absorbance at 450 nm was measured using an automatic microplate reader (Molecular Devices, San Jose, CA, USA).
Figure 2 Effect of the Na^+/Ca^2+ exchanger (NCX) blockers on viability of human glioblastoma cell lines. (a, b) Viability of adult glioblastoma cell lines (U87 and U251) after exposure to NCX blockers bepridil, KB‐R7943, SEA0400, SN‐6, or YM244769 at 0–100 μM for 72 hr. n = 5 independent tests per group. (c) Viability of paediatric glioblastoma cell line SF188 after 72‐hr incubation with the same NCX blockers at 0–100 μM. n = 5 independent tests per group. (d) For U87, U251, and SF188 cell lines, concentration of the NCX blockers required to produce half maximal inhibition (IC50: μM, mean ± SEM) of cell viability.

forward NCX = test: Whole-cell patch-clamp recording of forward-mode NCX currents in U87 cells; settings: forward NCX current measured at −110 mV, mean ± SEM, n = 4, read-out: IC50, blocking forward NCX (currents)
Protocol: Whole‐cell patch‐clamp recording was performed using a Multiclamp 700B amplifier (Molecular Devices, Foster City, CA, USA) at room temperature. Voltage protocols were provided and current recorded via a DigiData‐1550B interface (Molecular Devices) controlled by pClamp 10 Software (Molecular Devices, RRID:SCR_011323). […] Internal solution consisted of (in mM): 120 CsCl, 20 NaCl, 2 MgCl2, 13 CaCl2, 2 Na2ATP, 20 BAPTA, and 10 HEPES at a pH 7.2. […] Series resistance was compensated by 75–85%. Linear leak and residual capacitance currents were subtracted online using a P/4 protocol of the pClamp 10. For the recording of the membrane currents related to the NCX, cells were held at −50 mV and depolarized to +60 mV, and then a voltage ramp starting from +60 to −120 mV was applied for 1,000 ms before returning back to −50 mV. The reverse and forward NCX currents were measured at +50 and −110 mV holding potentials respectively (Molinaro et al., 2008; Rahman, Inman, Kiss, & Janssen, 2012; Song, Chen, & Yu, 2014). Data were filtered at 3 KHz and digitized at sampling rates of 20 KHz. For drug application, cells were perfused with a VC‐6 Six Channel Perfusion Valve Control Systems (Warner Instruments, Greenwich, CT, USA) connected to a gravity‐fed perfusion systems.
Data are expressed as mean ± SEM and analysed by Prism 7 software, La Jolla, CA (GraphPad Prism, RRID:SCR_002798). The data and statistical analysis comply with the recommendations of the British Journal of Pharmacology on experimental design and analysis in pharmacology. Concentrations of the NCX blockers (IC50) exerting half‐maximal inhibition of NCX currents were obtained by fitting the concentration–response with the equation: I/I0*100%=Bottom+Top−Bottom/1+10^((^Log^IC50−C)*n) , where I 0 and I are current amplitudes measured in control and in the presence of NCX blockers, C is the logarithm of concentration, and n is the Hill coefficient. The statistical difference between two independent groups was analysed by Student's parametric unpaired t test. And the original data of more than two groups were assessed by the parametric one‐way ANOVA followed by a Tukey's post hoc test. The data for cell viability and Western blot were usually normalized to the control group, and were thus analysed by the non‐parametric Kruskal–Wallis test followed by a Dunn's post hoc test. Differences were considered to be significant when P < .05. Post hoc tests were conducted when the F value achieved the necessary level (P < .05) and there was no significant variance inhomogeneity.
We characterized the membrane currents associated with NCX activity in glioblastoma cells using whole‐cell patch‐clamp recording. […] The NCX current in its reverse mode (Ca^2+ entry) was measured at +50, and the forward‐mode current (Ca^2+ exit) was measured at −110 mV. The Ni^2+ (10 mM) was employed to inhibit and identify the NCX currents in its either reverse or forward mode as previously reported (Maack, Ganesan, Sidor, & O'Rourke, 2005).

CC(C)COCC(CN(Cc1ccccc1)c1ccccc1)N1CCCC1 (stereo not shown) [Bepridil, N‐benzyl‐N‐(3‐isobutoxy‐2‐pyrrolidin‐1‐yl‐propyl)aniline]
Effect on intracellular Na+ [Na+]i level ([Na^+]i in U87 cells): did not change
Effect on growth (viability) of U251 cells (U251 cells; 25 μM, 48 hr): markedly suppressed growth
IC50 (U251 cells; Homo sapiens, U-251): 14.9 ± 1.1 µM
IC50 (forward NCX): 19.1 ± 1.2 µM

CS(=O)(=O)O.N=C(N)SCCc1ccc(OCc2ccc([N+](=O)[O-])cc2)cc1 [KB‐R7943, 2‐[4‐[(4‐nitrophenyl)methoxy]phenyl]ethyl ester carbamimidothioic acid methanesulfonate]
Effect on intracellular Na+ [Na+]i level ([Na^+]i in U87 cells): slightly decreased
IC50 (U251 cells): 29.2 ± 1.1 µM
IC50 (forward NCX): 32.3 ± 1.3 µM
